Experimental data taken from patent US9220799B2, “Bactericidal agent composition” (SUNSTAR ENGINEERING INC., priority 2012, dated 2015).

What was measured:
[1] = tested on: Pseudomonas aeruginosa NBRC13275; test: Bactericidal test on carriers with adhered Pseudomonas aeruginosa and dried organic substance (AOAC Official Method 964.02), surviving cell count; Examples 1, 4, 5; format: cell-based
Experimental: The test was conducted in accordance with AOAC Official Method 964.02 Testing Disinfectants against Pseudomonas aeruginosa.
The water prepared as described above to contain oxygen-filled ultrafine bubbles or the purified water of the Japanese Pharmacopoeia was used to dilute povidone iodine such that it was conditioned to 100 mg/L.
A cryopreserved bacterial strain (Pseudomonas aeruginosa NBRC13275) was grown in a tryptic soy agar (Difco; hereinafter referred to as TSA medium) at 36±1° C. for 18-24 hours. The grown cells were transplanted into a tryptic soy broth (Difco; hereinafter referred to as TSB medium) where they were cultured at 36±1° C. for 18-24 hours. The liquids of the thus cultured cells were conditioned with a TSB medium to an approximate value of 10^6 CFU/mL and the resulting liquids were used as test bacterial liquids.
A sterile bioassay cup (stainless steel Penicillin Cup 441-01 made by Sogo Rikagagu glass; hereinafter designated as a carrier) was placed in a 100-mL beaker, into which test bacterial liquids were poured in such amounts that the carrier would be completely immersed (ca. 30-40 mL). After allowing the beaker to stand for 10-15 minutes, the carrier was transferred onto a Petri dish with sterile filter paper spread on the bottom and by allowing the Petri dish to stand at 36±1° C. for 40±2 minutes, the bacterial cells and the organic substance derived from the mediums were dried and adhered to the carrier.
The test liquids preliminarily held at 25±2° C. were each dispensed in 10 mL into centrifugal tubes having a capacity of 50 mL; using a hook of platinum wire, the carriers to which the test bacterium adhered were put into the centrifugal tubes, one for each, and allowed to act at 25±2° C. for 20 minutes. Thereafter, the carriers were transferred into centrifugal tubes containing 10 mL of an inactivator SCDLP medium (Eiken Chemical Co., Ltd.), one for each, so as to inactivate the bactericidal component in the test liquid adhering to the carrier. The carriers were then treated with a sonicator at 20±2° C. for 5 minutes to wash off the test bacterium; the test liquids were agitated for an additional minute with a vortex mixer to prepare sample liquids for cell count and the number of surviving cells was counted. A control was prepared by the same procedure as described above, except that the test liquids were replaced by sterile physiological saline.
The sample liquids for cell count (stock liquids) were serially diluted 10-fold with sterile physiological saline; the sample liquids or the series of dilutions, each weighing a volume of 1 mL, were transferred aseptically into Petri dishes and, after mixing with 20 mL of a TSA medium, they were solidified and cultured at 36±1° C. for 48 hours. Thereafter, colonies growing on the medium were counted to determine the number of surviving cells per carrier (lower limit for quantification: 10 CFU/carrier).
To obtain those results, the test was replicated in five runs (n=5) and after eliminating minimum and maximum values, an averaged cell count for n=3 was indicated as a logarithmic value.
An experiment was conducted by the same method as in Example 1, except for the following points: water containing oxygen-filled ultrafine bubbles prepared as described above or purified water was used to dilute povidone iodine such that it was conditioned to 100 mg/L; in addition, the most frequent particle density of the water containing ultrafine bubbles were adjusted to orders of 10^4, 10^5, 10^6, and 10^8 per mL.
An experiment was conducted by the same method as in Example 1, except that water containing atmospheric air- or C3F8-filled ultrafine bubbles prepared as described above or purified water was used to dilute povidone iodine such that it was conditioned to 100 mg/L.

[2] = tested on: Streptococcus mutans (ATCC25175) biofilm; test: Bactericidal effect on cariogenic bacteria-formed biofilms, surviving cells in the biofilm; format: cell-based; settings: Example 3, 37°C, 20 min
Experimental: Either water containing oxygen-filled ultrafine bubbles prepared as described above or purified water was used to dilute povidone iodine to condition the same to 1.0 mg/mL and 10 mg/mL.
Streptococcus mutans (ATCC25175) was grown in a Tryptic soy Broth supplemented with 0.5% yeast extract (the resulting medium is hereinafter referred to as TSBY medium) at 37° C. until the OD660 was between 0.6 and 0.8 (10^8 cells/mL); the product was used as a test bacterial liquid.
A TSBY medium (plus 1% sucrose) placed in a test tube in a volume of 4950 μL was inoculated with 50 μL of the test bacterial liquid and was cultured at 37° C. for 18 hours to form a biofilm.
From the test tube in which the biofilm was formed, the culture broth was removed by means of an aspirator and the biofilm was washed with 5 mL of an added PBS. After removing the PBS, 5 mL of the test liquid was treated for reaction as it was shaken with a shaking machine (37° C.×20 min). After the 20-min reaction, 5 mL of 0.4% (w/v) sodium thiosulfate in solution was added into the test tube so as to inactivate the bactericidal agent. Using a sonicator, the biofilm was detached from the inner surfaces of the test tube and dispersed with a vortex mixer thereby prepare a sample liquid for cell count; the number of surviving cells in the biofilm was then counted.
The sample liquids for cell count were diluted with a buffer solution; after culture in an MS agar medium (37° C.×36-48 hours), the number of colonies formed was counted to determine the number of surviving cells in the biofilms.
To obtain those results, the test was replicated in 5 runs (n=5).

[3] = Example 1, povidone iodine 100 mg/L conditioned with water (purified water), 25°C, 20 min
[4] = Example 1, povidone iodine 100 mg/L conditioned with water containing oxygen-filled ultrafine bubbles (91 nm; 3.1x10^8, total 2.3x10^10 particles/ml), 25°C, 20 min
[5] = Example 4, povidone iodine 100 mg/L conditioned with water (purified water)
[6] = Example 4, povidone iodine 100 mg/L, water containing oxygen-filled ultrafine bubbles, 81 nm, most frequent particle density 7.2 × 10^4, total 4.2 × 10^6 particles/ml
[7] = Example 4, povidone iodine 100 mg/L, water containing oxygen-filled ultrafine bubbles, 81 nm, most frequent particle density 7.2 × 10^5, total 4.2 × 10^7 particles/ml
[8] = Example 4, povidone iodine 100 mg/L, water containing oxygen-filled ultrafine bubbles, 81 nm, most frequent particle density 7.2 × 10^6, total 4.2 × 10^8 particles/ml
[9] = Example 4, povidone iodine 100 mg/L, water containing oxygen-filled ultrafine bubbles, 81 nm, most frequent particle density 7.2 × 10^8, total 4.2 × 10^10 particles/ml
[10] = Example 5, povidone iodine 100 mg/L conditioned with water (purified water)
[11] = Example 5, povidone iodine 100 mg/L, water containing C3F8-filled ultrafine bubbles (76 nm; 2.7x10^8, total 1.3x10^10 particles/ml)
[12] = Example 5, povidone iodine 100 mg/L, water containing atmospheric air-filled ultrafine bubbles (75 nm; 5.7x10^8, total 4.6x10^10 particles/ml)
[13] = povidone iodine concentration 1 (table head mg/L; text 1.0 mg/mL) conditioned with water (purified water)
[14] = povidone iodine concentration 1 (table head mg/L; text 1.0 mg/mL) conditioned with water containing oxygen-filled ultrafine bubbles (100 nm; 2.0x10^7, total 1.6x10^9 particles/ml)
[15] = povidone iodine concentration 10 (table head mg/L; text 10 mg/mL) conditioned with water (purified water)
[16] = povidone iodine concentration 10 (table head mg/L; text 10 mg/mL) conditioned with water containing oxygen-filled ultrafine bubbles (100 nm; 2.0x10^7, total 1.6x10^9 particles/ml)

povidone iodine
Cell count CFU/carrier average [1, 3]: 8000 CFU/carrier | Cell count CFU/carrier n1 [1, 3]: 23000 CFU/carrier | Cell count CFU/carrier n2 [1, 3]: 19000 CFU/carrier | Cell count CFU/carrier n3 [1, 3]: 26000 CFU/carrier | log value (averaged surviving cell count as logarithmic value) [1, 3]: 3.9 | Cell count CFU/carrier average [1, 4]: 23 CFU/carrier | Cell count CFU/carrier n1 [1, 4]: 10 CFU/carrier | Cell count CFU/carrier n2 [1, 4]: 10 CFU/carrier | Cell count CFU/carrier n3 [1, 4]: 50 CFU/carrier | log value (averaged surviving cell count as logarithmic value) [1, 4]: 1.4 | Cell count CFU/carrier average [1, 5]: 44000 CFU/carrier | Cell count CFU/carrier n1 [1, 5]: 46000 CFU/carrier | Cell count CFU/carrier n2 [1, 5]: 47000 CFU/carrier | Cell count CFU/carrier n3 [1, 5]: 39000 CFU/carrier | Log value [1, 5]: 4.6 | Cell count CFU/carrier average [1, 6]: 5300 CFU/carrier | Cell count CFU/carrier n1 [1, 6]: 5900 CFU/carrier | Cell count CFU/carrier n2 [1, 6]: 2200 CFU/carrier | Cell count CFU/carrier n3 [1, 6]: 7700 CFU/carrier | Log value [1, 6]: 3.7 | Observed bactericidal efficacy [1, 6]: Δ | Cell count CFU/carrier average [1, 7]: <10 CFU/carrier | Cell count CFU/carrier n1 [1, 7]: 4200 CFU/carrier | Cell count CFU/carrier n2 [1, 7]: <10 CFU/carrier | Cell count CFU/carrier n3 [1, 7]: <10 CFU/carrier | Log value [1, 7]: 3.1 | Observed bactericidal efficacy [1, 7]: ○ | Cell count CFU/carrier average [1, 8]: <10 CFU/carrier | Cell count CFU/carrier n1 [1, 8]: <10 CFU/carrier | Cell count CFU/carrier n2 [1, 8]: <10 CFU/carrier | Cell count CFU/carrier n3 [1, 8]: <10 CFU/carrier | Log value [1, 8]: <1.0 | Observed bactericidal efficacy [1, 8]: ○ | Cell count CFU/carrier average [1, 9]: <10 CFU/carrier | Cell count CFU/carrier n1 [1, 9]: <10 CFU/carrier | Cell count CFU/carrier n2 [1, 9]: <10 CFU/carrier | Cell count CFU/carrier n3 [1, 9]: <10 CFU/carrier | Log value [1, 9]: <1.0 | Observed bactericidal efficacy [1, 9]: ○ | Cell count CFU/carrier average [1, 10]: 4500 CFU/carrier | Cell count CFU/carrier n1 [1, 10]: 3200 CFU/carrier | Cell count CFU/carrier n2 [1, 10]: 1800 CFU/carrier | Cell count CFU/carrier n3 [1, 10]: 8600 CFU/carrier | Log value [1, 10]: 3.7 | Cell count CFU/carrier average [1, 11]: <10 CFU/carrier | Cell count CFU/carrier n1 [1, 11]: <10 CFU/carrier | Cell count CFU/carrier n2 [1, 11]: <10 CFU/carrier | Cell count CFU/carrier n3 [1, 11]: <10 CFU/carrier | Log value [1, 11]: 1.0 | Cell count CFU/carrier average [1, 12]: 32 CFU/carrier | Cell count CFU/carrier n1 [1, 12]: 10 CFU/carrier | Cell count CFU/carrier n2 [1, 12]: 75 CFU/carrier | Cell count CFU/carrier n3 [1, 12]: <10 CFU/carrier | Log value [1, 12]: 1.5 | Cell count CFU average [2, 13]: 616.6 CFU | Cell count CFU n1 [2, 13]: 612 CFU | Cell count CFU n2 [2, 13]: 439 CFU | Cell count CFU n3 [2, 13]: 1050 CFU | Cell count CFU n4 [2, 13]: 386 CFU | Cell count CFU n5 [2, 13]: 596 CFU | Cell count CFU average [2, 14]: 149.2 CFU | Cell count CFU n1 [2, 14]: 250 CFU | Cell count CFU n2 [2, 14]: 35 CFU | Cell count CFU n3 [2, 14]: 178 CFU | Cell count CFU n4 [2, 14]: 150 CFU | Cell count CFU n5 [2, 14]: 133 CFU | Cell count CFU average [2, 15]: 9.2 CFU | Cell count CFU n1 [2, 15]: 9 CFU | Cell count CFU n2 [2, 15]: 22 CFU | Cell count CFU n3 [2, 15]: 13 CFU | Cell count CFU n4 [2, 15]: 0 CFU | Cell count CFU n5 [2, 15]: 2 CFU | Cell count CFU average [2, 16]: 0 CFU | Cell count CFU n1 [2, 16]: 0 CFU | Cell count CFU n2 [2, 16]: 0 CFU | Cell count CFU n3 [2, 16]: 0 CFU | Cell count CFU n4 [2, 16]: 0 CFU | Cell count CFU n5 [2, 16]: 0 CFU
